The target in the first experiment is T1, human MRGPR X4 (Homo sapiens, UniProt Q96LA9).
T1 construct: expressed in transfected cells
T1 sequence (Q96LA9 whole entry): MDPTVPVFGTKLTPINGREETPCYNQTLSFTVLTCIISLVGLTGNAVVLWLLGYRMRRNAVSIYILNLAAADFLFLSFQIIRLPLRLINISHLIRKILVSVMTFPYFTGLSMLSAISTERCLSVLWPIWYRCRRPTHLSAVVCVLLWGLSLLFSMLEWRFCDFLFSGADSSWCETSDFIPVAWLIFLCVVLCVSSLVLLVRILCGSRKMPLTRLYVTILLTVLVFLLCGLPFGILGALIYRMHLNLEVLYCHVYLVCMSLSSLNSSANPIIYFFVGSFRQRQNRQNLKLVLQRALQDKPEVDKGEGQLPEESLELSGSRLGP
The experiment can be described thus: MRGPR X4 antagonist activity, IP-One Gq HTRF assay in stably transfected HEK cells. Type of experiment: cell-based.
Conditions: not given
The method, then: HEK cells stably transfected to express human MIRGPR X4 were maintained in an incubator at 37° C. with 5% CO2 and grown in DMEM media with 10% fetal bovine serum (FBS) and […] each of sodium pyruvate, Glutamax, penicillin/streptomycin, and Geneticin. HEK cells stably transfected to express mouse MRGPR A1 were maintained in the same incubator and grown in DMEM media with 10% FBS, 1% each of sodium pyruvate, Glutamax, penicillin/streptomycin, Geneticin, and 2.2 mg/mL Hygromycin.
Cells were plated in a 384-well assay plate at 20,000 cells per well in 12 μL of Opti-MEM and kept in an incubator overnight. On the day of the assay, compounds solubilized at 10 mM in DMSO were added as a 10-point curve (10 uM final top concentration with 1:3 serial dilutions) using a Tecan D300E digital dispenser. Agonists were diluted in assay buffer (final concentrations of 5.7 mM Tris-HCl, 43 mM NaCl, 50 mM LiCl, pH=8) and 2 μL of the appropriate agonist are added to each well. Final concentrations of agonists were 10 μM bilirubin, 20 μM deoxycholic acid, or 100 μM conjugated bilirubin (obtained from Lee Biosolutions, catalog #910-12). Final concentrations of DMSO were kept consistent across the plate. Plates were incubated in the dark for 1 h at 37° C. and then for 30 minutes at room temperature. IP-1 standards and HTRF detection reagents were added according to the IP-One—Gq Kit purchased from Cisbio (part number 62IPAPEJ) and incubated in the dark for 1 h at room temperature. The plate was read on a Molecular Devices SpectraMax iD5 plate reader. The HTRF ratio was calculated from the raw data and graphed using GraphPad Prism to calculate an IC50 value for each compound.
For `Cc1ccc(Cn2nc(C(=O)NCCc3c[nH]c4ccccc34)c3ccccc32)cc1` [Compound 135, N-(2-(1H-indol-3-yl)ethyl)-1-(4-methylbenzyl)-1H-indazole-3-carboxamide], the IC50 was 1000 to 2500 nM.
For `O=C(NCCc1cccnc1)c1nn(Cc2ccc(OC(F)(F)F)cc2)c2ccccc12` [Compound 136, N-(2-(pyridin-3-yl)ethyl)-1-(4-(trifluoromethoxy)benzyl)-1H-indazole-3-carboxamide], the IC50 lay within 100 to 500 nM.
Take `CC(C)c1cn(CCNC(=O)c2nn(Cc3ccc(Cl)cc3)c3ccccc23)nn1` [Compound 137, 1-(4-chlorobenzyl)-N-(2-(4-isopropyl-1H-1,2,3-triazol-1-yl)ethyl)-1H-indazole-3-carboxamide]: the IC50 is under 100 nM.
The same measure, in the same setting: in the case of `O=C(NCCn1cc(C2CC2)nn1)c1nn(Cc2ccc(Cl)cc2)c2ccccc12` [Compound 138] it was under 100 nM.
The compound `CC1(c2cn(CCNC(=O)c3nn(Cc4ccc(Cl)cc4)c4ccccc34)nn2)COC1` [Compound 139] displayed an IC50 of 100 to 500 nM.
Take `CC(C)(O)c1cn(CCNC(=O)c2nn(Cc3ccc(Cl)cc3)c3ccccc23)nn1` [Compound 140]: the IC50 was in the range of 501 to 1000 nM.
Compound `O=C(NCCn1cc(-c2ccccc2)nn1)c1nn(Cc2ccc(Cl)cc2)c2ccccc12` [Compound 141] gave an IC50 of 501 to 1000 nM.
As for `CC(C)c1cnnn1CCNC(=O)c1nn(Cc2ccc(Cl)cc2)c2ccccc12` [Compound 143, 1-(4-chlorobenzyl)-N-(2-(5-isopropyl-1H-1,2,3-triazol-1-yl)ethyl)-1H-indazole-3-carboxamide], the IC50 lay within 100 to 500 nM.
For `O=C(NCCn1cc(-c2cccnc2)nn1)c1nn(Cc2ccc(Cl)cc2)c2ccccc12` [Compound 144, 1-(4-chlorobenzyl)-N-(2-(4-(pyridin-3-yl)-1H-1,2,3-triazol-1-yl)ethyl)-1H-indazole-3-carboxamide], the IC50 was 100 to 500 nM.
For `O=C(NCCn1cc(-c2cncnc2)nn1)c1nn(Cc2ccc(Cl)cc2)c2ccccc12` [Compound 145], the IC50 fell in the range of 501 to 1000 nM.
The compound `O=C(NCC(O)c1cccnc1)c1cn(Cc2ccc(Cl)cc2)c2ccccc12` (stereo not shown) [Compound 150] gave an IC50 of 100 to 500 nM.
Turning to `Cc1ccc(CCNC(=O)c2cn(Cc3ccc(Cl)cc3)c3ccccc23)cn1` [Compound 151], the IC50 is under 100 nM.
For the compound `Cc1ncccc1CCNC(=O)c1cn(Cc2ccc(Cl)cc2)c2ccccc12` [Compound 152, 1-(4-chlorobenzyl)-N-(2-(2-methylpyridin-3-yl)ethyl)-1H-indole-3-carboxamide], the IC50 was under 100 nM.
`Cc1cccc(CCNC(=O)c2cn(Cc3ccc(Cl)cc3)c3ccccc23)n1` [Compound 153] yielded an IC50 of under 100 nM.
For `O=C(NCCc1cncc(F)c1)c1cn(Cc2ccc(Cl)cc2)c2ccccc12` [Compound 154], the IC50 is under 100 nM.
`COc1ncccc1CCNC(=O)c1cn(Cc2ccc(Cl)cc2)c2ccccc12` [Compound 155] yielded an IC50 of 100 to 500 nM.
On to `Cc1ccc(CCNC(=O)c2cn(Cc3ccc(Cl)cc3)c3ccccc23)c(C)n1` [Compound 156], for which the IC50 was in the range of 100 to 500 nM.
On the same count and under the same terms, in the case of `Cc1ccc(Cn2cc(C(=O)NCCc3ccccn3)c3ccccc32)cc1` [Compound 158] it was 100 to 500 nM; in that of `Cc1ccc(Cn2cc(C(=O)NCCc3nc(C)cs3)c3ccccc32)cc1` [Compound 159], 100 to 500 nM; in that of `Cc1ccc(Cn2cc(C(=O)NCCc3cccnc3)c3ccccc32)cc1` [Compound 160], 100 to 500 nM.
Still for that read-out and setting: in the case of `Cc1ccncc1CCNC(=O)c1cn(Cc2ccc(Cl)cc2)c2ccccc12` [Compound 161] it was 100 to 500 nM; in that of `O=C(NCCc1cccc(F)c1)c1cn(Cc2ccc(Cl)cc2)c2ccccc12` [Compound 162], 100 to 500 nM; in that of `O=C(NCCc1ccncc1)c1cn(Cc2ccc(Cl)cc2)c2ccccc12` [Compound 163], 100 to 500 nM.
`COc1cccc(CCNC(=O)c2cn(Cc3ccc(Cl)cc3)c3ccccc23)c1` [Compound 164] returned an IC50 of 100 to 500 nM.
In the case of `Cc1ccc(Cn2cc(C(=O)NCCc3nc4c(s3)CCCC4)c3ccccc32)cc1` [Compound 165], the IC50 was 100 to 500 nM.
For the compound `O=C(NCCc1cccnc1)c1cn(Cc2ccc(OC(F)F)cc2)c2ccccc12` [Compound 166], the IC50 is 100 to 500 nM.
Take `O=C(NCCc1ccccn1)c1cn(Cc2ccc(OC(F)F)cc2)c2ccccc12` [Compound 167]: the IC50 lay in the range of 100 to 500 nM.
The same measure, in the same setting: in the case of `COc1ccc(CCNC(=O)c2cn(Cc3ccc(Cl)cc3)c3ccccc23)cn1` [Compound 168] it was 100 to 500 nM; in that of `Cc1ccc(Cn2cc(C(=O)NCCc3c[nH]c4ccccc34)c3ccccc32)cc1` [Compound 169], 100 to 500 nM.
Still for that read-out and setting: the same measure for `O=C(NCCc1ccccc1F)c1cn(Cc2ccc(Cl)cc2)c2ccccc12` [Compound 170]: 100 to 500 nM; for `O=C(NCCc1cnccn1)c1cn(Cc2ccc(Cl)cc2)c2ccccc12` [Compound 171]: 100 to 500 nM; for `Cc1ccc(Cn2cc(C(=O)NCCc3ccncc3)c3ccccc32)cc1` [Compound 172]: 100 to 500 nM.
On the same count and under the same terms, the same measure for `O=C(NCCc1cccnc1)c1cn(Cc2ccc(OC(F)(F)F)cc2)c2ccccc12` [Compound 173]: 100 to 500 nM.
Compound `Cc1ccc(Cn2cc(C(=O)NCCc3nc4c(s3)CCC4)c3ccccc32)cc1` [Compound 174] registered an IC50 of 100 to 500 nM.
Same read-out and setting: in the case of `Cc1ccc(CCNC(=O)c2cn(Cc3ccc(Cl)cc3)c3ccccc23)cc1` [Compound 175] it was 100 to 500 nM; in that of `COc1ccc(Cn2cc(C(=O)NCCc3cccnc3)c3ccccc32)cc1` [Compound 176], 100 to 500 nM; in that of `COc1ccccc1CCNC(=O)c1cn(Cc2ccc(Cl)cc2)c2ccccc12` [Compound 177], 100 to 500 nM.
`Cc1ccccc1CCNC(=O)c1cn(Cc2ccc(Cl)cc2)c2ccccc12` [Compound 178] came in with an IC50 of 100 to 500 nM.
Compound `O=C(NCCc1ccc(F)cc1)c1cn(Cc2ccc(Cl)cc2)c2ccccc12` [Compound 179] showed an IC50 of 100 to 500 nM.
The same measure, in the same setting: the same measure for `Cc1cccc(CCNC(=O)c2cn(Cc3ccc(Cl)cc3)c3ccccc23)c1` [Compound 180]: 100 to 500 nM; for `Cc1ccc(Cn2cc(C(=O)NCCc3cn4c(n3)SCC4)c3ccccc32)cc1` [Compound 181]: 100 to 500 nM; for `COc1ccc(CCNC(=O)c2cn(Cc3ccc(Cl)cc3)c3ccccc23)cc1` [Compound 182]: 100 to 500 nM.
On the same count and under the same terms, in the case of `O=C(NCCc1cccnc1)c1cn(Cc2ccccc2Cl)c2ccccc12` [Compound 183] it was 501 to 1000 nM.
In the case of `N#Cc1ccc(Cn2cc(C(=O)NCCc3ccccn3)c3ccccc32)cc1` [Compound 184], the IC50 fell in the range of 501 to 1000 nM.
`N#Cc1ccc(CCNC(=O)c2cn(Cc3ccc(Cl)cc3)c3ccccc23)cn1` [Compound 185] yielded an IC50 of 501 to 1000 nM.
`O=C(NCCc1cccnc1)c1cn(Cc2cccc(OC(F)(F)F)c2)c2ccccc12` [Compound 186] came in with an IC50 of 501 to 1000 nM.
`Cc1ccc(Cn2cc(C(=O)NCCc3ccnn3C)c3ccccc32)cc1` [Compound 187]: the IC50 is 501 to 1000 nM.
The same measure, in the same setting: the same measure for `N#Cc1ccc(Cn2cc(C(=O)NCCc3ccc(Cl)c(F)c3)c3ccccc32)cc1` [Compound 188]: 501 to 1000 nM; for `O=C(NCCc1cccnc1C(F)(F)F)c1cn(Cc2ccc(Cl)cc2)c2ccccc12` [Compound 189]: 501 to 1000 nM.
The compound `O=C(NCCc1ccccc1C(F)(F)F)c1cn(Cc2ccc(Cl)cc2)c2ccccc12` [Compound 190] had an IC50 of 501 to 1000 nM.
Still for that read-out and setting: in the case of `CC(=O)c1ccc(Cn2cc(C(=O)NCCc3cccnc3)c3ccccc32)cc1` [Compound 191] it was 501 to 1000 nM; in that of `Cc1ccc(Cn2cc(C(=O)NCCc3nc4ccccc4s3)c3ccccc32)cc1` [Compound 192], 501 to 1000 nM.
Compound `N#Cc1ccc(Cn2cc(C(=O)NCCc3cccnc3)c3ccccc32)cc1` [Compound 193] registered an IC50 of 501 to 1000 nM.
Turning to `O=C(NCCc1ccccc1OC(F)(F)F)c1cn(Cc2ccc(Cl)cc2)c2ccccc12` [Compound 194], the IC50 lay within 501 to 1000 nM.
`O=C(NCCc1cccnc1)c1cn(Cc2cccc(Cl)c2)c2ccccc12` [Compound 195]: the IC50 was in the range of 501 to 1000 nM.
Consider `Cc1ccc(Cn2cc(C(=O)NCCc3ccc(Cl)c(F)c3)c3ccccc32)cc1` [Compound 196], for which the IC50 fell in the range of 501 to 1000 nM.
The compound `O=C(NCCc1ccc(C(F)(F)F)nc1)c1cn(Cc2ccc(Cl)cc2)c2ccccc12` [Compound 197] registered an IC50 of 501 to 1000 nM.

Staying with this experiment, now noted: versus 20 μM deoxycholic acid agonist; HEK cells expressing human MRGPR X4; read-out: MRGPRX4 Antagonist Activity.
On to `CNCc1cn(CCNC(=O)c2nn(Cc3ccc(Cl)cc3)c3ccccc23)nn1` [Compound 142], for which the IC50 was over 2500 nM.
As for `O=C(NCCn1cc(C2CCNCC2)nn1)c1nn(Cc2ccc(Cl)cc2)c2ccccc12` [Compound 146], the IC50 is over 2500 nM.
For `O=C(NCCn1cc(CN2CCS(=O)(=O)CC2)nn1)c1nn(Cc2ccc(Cl)cc2)c2ccccc12` [Compound 147], the IC50 is over 2500 nM.
On the same count and under the same terms, the same measure for `O=C(CCc1cccnc1)Nc1nn(Cc2ccc(Cl)cc2)c2ccccc12` [Compound 148, N-(1-(4-chlorobenzyl)-1H-indazol-3-yl)-3-(pyridin-3-yl)-propanamide]: 1000 to 2500 nM.
